Key:
RARα = biological target: T1, RARα (Homo sapiens, UniProt P10276); test: Ligand Binding Assay, RARα
T1 sequence (P10276 1-462): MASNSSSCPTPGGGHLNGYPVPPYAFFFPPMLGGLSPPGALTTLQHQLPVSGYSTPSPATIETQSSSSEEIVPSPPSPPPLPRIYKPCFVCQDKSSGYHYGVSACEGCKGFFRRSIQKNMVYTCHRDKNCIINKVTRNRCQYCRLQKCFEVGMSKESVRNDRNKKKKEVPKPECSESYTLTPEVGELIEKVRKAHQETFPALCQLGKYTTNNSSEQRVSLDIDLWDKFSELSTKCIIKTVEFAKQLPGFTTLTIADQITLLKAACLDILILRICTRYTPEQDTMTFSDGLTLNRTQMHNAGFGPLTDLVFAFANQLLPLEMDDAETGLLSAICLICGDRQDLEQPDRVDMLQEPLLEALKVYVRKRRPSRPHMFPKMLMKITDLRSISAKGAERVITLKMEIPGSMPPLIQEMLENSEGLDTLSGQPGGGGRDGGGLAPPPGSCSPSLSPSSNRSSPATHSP
Excerpt: (§1) Other assays described below, measure the ability of the compounds of the present invention to bind to, and/or activate various retinoid receptor subtypes. When in these assays a compound binds to a given receptor subtype and activates the transcription of a reporter gene through that subtype, then the compound is considered an agonist of that receptor subtype. […] In the below descried assays the ability of the compounds to bind to RARα, RARβ, RARγ, RXRα, RXRβ and RXRγ receptors, and the ability or inability of the compounds to activate transcription of a reporter gene through these receptor subtypes can be tested.
(§2) A holoreceptor transactivation assay and a ligand binding assay which measure the antagonist/agonist like activity of the compounds of the invention, or their ability to bind to the several retinoid receptor subtypes, respectively, are described in published PCT Application No. WO WO93/11755 (particularly on pages 30-33 and 37-41) published on Jun. 24, 1993, the specification of which is also incorporated herein by reference. A description of the holoreceptor transactivation assay is also provided below.
(§3) CV1 cells (5,000 cells/well) were transfected with an RAR reporter plasmid MTV-TREp-LUC (50 ng) along with one of the RAR expression vectors (10 ng) in an automated 96-well format by the calcium phosphate procedure of Heyman et al. Cell 68, 397-406, (1992). For RXRα and RXRγ transactivation assays, an RXR-responsive reporter plasmid CRBPII-tk-LUC (50 ng) along with the appropriate RXR expression vectors (10 ng) was used substantially as described by Heyman et al. above, and Allegretto et al. J. Biol. Chem. 268, 26625-26633. For RXRβ transactivation assays, an RXR-responsive reporter plasmid CPRE-tk-LUC ([…]) along with RXRβ expression vector ([…]) was used as described in above. These reporters contain DRI elements from human CRBPII and certain DRI elements from promoter, respectively. (see Mangelsdorf et al. The Retinoids: Biology, Chemistry and Medicine, pp 319-349, Raven Press Ltd., New York and Heyman et al., cited above) (1, 8). A β-galactosidase (50 ng) expression vector was used as an internal control in the transfections to normalize for variations in transfection efficiency. The cells were transfected in triplicate for 6 hours, followed by incubation with retinoids for 36 hours, and the extracts were assayed for luciferase and β-galactosidase activities. The detailed experimental procedure for holoreceptor transactivations has been described in Heyman et al. above, and Allegretto et al. cited above. The results obtained in this assay are expressed in EC50 numbers, as they are also in the chimeric receptor transactivation assay. The Heyman et al. Cell 68, 397-406, Allegretto et al. J. Biol. Chem. 268, 26625-26633, and Mangelsdorf et al. The Retinoids: Biology, Chemistry and Medicine, pp 319-349, Raven Press Ltd., New York, are expressly incorporated herein by reference. The results of ligand binding assay are expressed in Kd numbers. (See Cheng et al. Biochemical Pharmacology Vol. 22 pp 3099-3108, expressly incorporated herein by reference.)

RARβ = biological target: T2, RARβ (Homo sapiens, UniProt P10826); test: Ligand Binding Assay, RARβ
T2 sequence (P10826 1-448 isoform P10826-2): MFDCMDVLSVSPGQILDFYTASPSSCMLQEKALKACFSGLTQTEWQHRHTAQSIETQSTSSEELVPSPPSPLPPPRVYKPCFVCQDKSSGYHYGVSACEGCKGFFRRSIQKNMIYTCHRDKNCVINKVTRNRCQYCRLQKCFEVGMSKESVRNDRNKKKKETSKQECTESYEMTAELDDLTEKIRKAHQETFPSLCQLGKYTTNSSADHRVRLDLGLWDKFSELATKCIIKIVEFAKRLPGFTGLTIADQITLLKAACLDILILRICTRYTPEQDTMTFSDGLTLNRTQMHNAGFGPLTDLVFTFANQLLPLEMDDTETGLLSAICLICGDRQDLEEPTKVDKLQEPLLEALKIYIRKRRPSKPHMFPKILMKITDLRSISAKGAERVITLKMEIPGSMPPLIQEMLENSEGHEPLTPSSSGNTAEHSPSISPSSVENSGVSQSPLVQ
Excerpt: as §1, §2, §3

RARγ = biological target: T3, RARγ (Homo sapiens, UniProt P13631); test: Ligand Binding Assay, RARγ
T3 sequence (P13631 1-454): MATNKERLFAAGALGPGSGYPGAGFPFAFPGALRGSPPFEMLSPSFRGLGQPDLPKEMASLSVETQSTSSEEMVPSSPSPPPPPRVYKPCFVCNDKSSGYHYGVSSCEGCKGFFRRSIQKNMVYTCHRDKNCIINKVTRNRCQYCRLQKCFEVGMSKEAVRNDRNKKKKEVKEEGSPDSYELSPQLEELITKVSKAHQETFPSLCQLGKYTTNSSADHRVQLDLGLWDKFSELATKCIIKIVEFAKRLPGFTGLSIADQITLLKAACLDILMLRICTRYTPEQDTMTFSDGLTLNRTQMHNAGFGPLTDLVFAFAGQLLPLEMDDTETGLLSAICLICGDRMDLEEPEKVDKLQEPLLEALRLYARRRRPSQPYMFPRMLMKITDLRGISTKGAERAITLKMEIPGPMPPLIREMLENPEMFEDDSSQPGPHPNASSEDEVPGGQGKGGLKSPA
Excerpt: as §1, §2, §3

[1] = test system: RARγ-VP-16 chimeric receptor; test: Retinoid inverse agonist assay: inhibition of basal luciferase activity in CV-1 cells cotransfected with RARγ-VP-16, ER-RXRα and ERE-tk-Luc; type: cell-based; settings: RARγ-VP-16, ER-RXRα chimeric receptor, ERE-tk-Luc reporter, read-out: IC50 (inhibition of basal luciferase activity, inverse agonism)
Excerpt: The activity of retinoid inverse agonists can be tested by the procedure of Klein et al. J. Biol. Chem. 271, 22692-22696 (1996) which is expressly incorporated herein by reference.
In this assay, retinoid inverse agonists are able to repress the basal activity of a RARγ-VP-16 chimeric receptor where the constituitively active domain of the herpes simplex virus (HSV) VP-16 is fused to the N-terminus of RARγ. CV-1 cells are cotransfected with RARγ-VP-16, an ER-RXRα chimeric receptor and an ERE-tk-Luc chimeric reporter gene to produce a basal level of luciferase activity, as shown by Nagpal et al. EMBO J. 12, 2349-2360 […] expressly incorporated herein by reference. Retinoid inverse agonists are able to inhibit the basal luciferase activity in these cells in a dose dependent manner and IC50 s measured.

Kd (RARα)	Kd (RARβ)	Kd (RARγ)	IC50 [1]	Structure (SMILES)
0.013 µM	0.003 µM	0.009 µM	0.001 µM	Cc1ccc(N2CCC(C)(C)c3ccc(C#Cc4ccc(C(=O)O)cc4)cc32)cc1 [Compound 5, 4-(2-(4,4-Dimethyl-1,2,3,4-tetrahydro-N-(4-methylphenyl)quinolin-7-yl)ethynyl)benzoic Acid]
0.147 µM	0.018 µM	0.052 µM		CC1(C)CCN(c2ccccc2)c2cc(C#Cc3ccc(C(=O)O)cc3)ccc21 [Compound 10, 4-(2-(4,4-Dimethyl-1,2,3,4-tetrahydro-N-phenylquinolin-7-yl)ethynyl)benzoicAcid]
0.101 µM	0.084 µM	0.53 µM		Cc1ccc(N2CCC(C)(C)c3ccc(C#Cc4ccc(C(=O)O)c(F)c4)cc32)cc1 [Compound 12, 4-(2-(4,4-Dimethyl-1,2,3,4-tetrahydro-N-(4-methylphenyl)quinolin-7-yl)ethynyl)-2-fluorobenzoic Acid]
0.011 µM	0.005 µM	0.015 µM		Cc1ccc(N2CCC(C)(C)c3ccc(/C=C/c4ccc(C(=O)O)cc4)cc32)cc1 [Compound 14, (E)-4-(2-(4,4-dimethyl-1,2,3,4-tetrahydro-N-(4-methylphenyl)quinolin-7-yl)ethenyl)benzoic acid]
0.059 µM	0.017 µM	0.032 µM		Cc1ccc(N2C(=O)CC(C)(C)c3ccc(C#Cc4ccc(C(=O)O)cc4)cc32)cc1 [Compound 22, 4-(2-(4,4-Dimethyl-3,4-dihydro-N-(4-methylphenyl)-2(1H)-quinolinon-7-yl)ethynyl)benzoic Acid]
0.027 µM	> 1 µM	> 1 µM		Cc1ccc(N2CCC(C)(C)c3ccc(C(=O)Nc4ccc(C(=O)O)cc4)cc32)cc1 [Compound 25, (4,4-dimethyl-1,2,3,4-tetrahydro-N-(4-methylphenyl)quinolin-7-carboxyl)-4-carboxyanilide]

Reference: patent US5739338A, “N-aryl substituted tetrahydroquinolines having retinoid agonist, retinoid antagonist or retinoid inverse agonist type biological activity” (Allergan, priority 1996, dated 1998)
